Reference: patent US7932270B2 (Cytokinetics, Inc., priority 2006, dated 2011)
pIC50: −log10 of the molar value.

Target: T1, chicken gizzard smooth muscle myosin subfragment-1 chemically crosslinked to cardiac or skeletal actin (Gallus gallus, UniProt P10587)
T1 construct: chicken gizzard smooth muscle myosin subfragment-1; from tissue; host or cells: chicken gizzard
Experiment: Smooth muscle myosin ATPase dose response assay (pyruvate kinase/horseradish peroxidase/pyruvate oxidase-coupled, amplex red fluorescence)
Type: biochemical
Details: read-out: IC50 Arithmetic Mean
Method in brief: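 Chicken gizzard myosin S1 crosslinked to cardiac or skeletal actin, titrated to a set hydrolysis rate; 0.15 mM ATP, 12 mM PIPES pH 7.00, 100 mM KCl, 2 mM MgCl2. Pyruvate kinase/pyruvate oxidase/HRP coupling with amplex red fluorescence; IC50 from 4-parameter fit.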

T1 sequence (P02607 2-151): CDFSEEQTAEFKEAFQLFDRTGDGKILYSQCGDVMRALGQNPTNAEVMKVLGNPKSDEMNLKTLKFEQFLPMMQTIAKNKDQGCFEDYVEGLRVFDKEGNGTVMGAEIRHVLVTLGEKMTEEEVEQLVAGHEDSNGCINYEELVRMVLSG
T1 sequence (P10587 84-789): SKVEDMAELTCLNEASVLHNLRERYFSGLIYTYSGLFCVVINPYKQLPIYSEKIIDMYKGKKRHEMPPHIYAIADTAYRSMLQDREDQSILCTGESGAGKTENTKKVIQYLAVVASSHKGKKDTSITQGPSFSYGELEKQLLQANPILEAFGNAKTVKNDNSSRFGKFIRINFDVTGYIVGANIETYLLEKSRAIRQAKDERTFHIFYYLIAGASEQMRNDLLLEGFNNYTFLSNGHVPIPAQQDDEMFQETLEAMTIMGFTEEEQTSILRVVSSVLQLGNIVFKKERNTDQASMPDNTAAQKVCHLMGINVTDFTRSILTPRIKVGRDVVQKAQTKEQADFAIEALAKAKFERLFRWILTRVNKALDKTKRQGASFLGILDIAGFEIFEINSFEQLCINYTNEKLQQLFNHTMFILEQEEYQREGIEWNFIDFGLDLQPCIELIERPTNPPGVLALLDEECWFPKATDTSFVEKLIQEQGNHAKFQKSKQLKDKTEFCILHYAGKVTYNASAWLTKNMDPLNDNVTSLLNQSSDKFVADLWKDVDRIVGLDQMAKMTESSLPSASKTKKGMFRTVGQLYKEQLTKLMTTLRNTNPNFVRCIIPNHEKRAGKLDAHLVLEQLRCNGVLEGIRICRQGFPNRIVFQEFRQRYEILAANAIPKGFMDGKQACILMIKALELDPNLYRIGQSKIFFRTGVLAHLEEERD

pIC50 | Compound
5.16 | COC(=O)[C@H](C)NC(=O)c1ccc(-c2ccccc2C#N)nc1NCCc1cccc(F)c1 [methyl (2S)-2-[(6-(2-cyanophenyl)-2-{[2-(3-fluorophenyl)ethyl]amino}(3-pyridyl))carbonylamino]propanoate]
5.98 | O=C(NCc1cccnc1)c1ccc(-c2ccc(F)cc2)nc1NCCc1ccccn1 [{6-(4-fluorophenyl)-2-[(2-(2-pyridyl)ethyl)amino](3-pyridyl)}-N-(3-pyridylmethyl)carboxamide]
6.20 | N#Cc1cc(C(=O)NC[C@H]2CCCN2)c(NCCc2cccc(F)c2)nc1-c1cn[nH]c1 [N-[((2R)pyrrolidin-2-yl)methyl](5-cyano-2-{[2-(3-fluorophenyl)ethyl]amino}-6-pyrazol-4-yl(3-pyridyl))carboxamide]
5.16 | O=C1CNCC(CNC(=O)c2ccc(-c3ccn[nH]3)nc2NCCc2cccc(F)c2)N1 (stereo not shown) [(2-{[2-(3-fluorophenyl)ethyl]amino}-6-pyrazol-5-yl(3-pyridyl))-N-[(6-oxopiperazin-2-yl)methyl]carboxamide]
4.07 | COC(=O)[C@H](C)CNC(=O)c1cc(F)c(-c2cnn(C)c2)nc1N [methyl (2R)-3-{[2-amino-5-fluoro-6-(1-methylpyrazol-4-yl)(3-pyridyl)]carbonylamino}-2-methylpropanoate]
5.13 | N#Cc1ccccc1-c1ccc(C(=O)N[C@H](CCCN)C(N)=O)c(NCCc2cccc(F)c2)n1 [N-((1R)-4-amino-1-carbamoylbutyl)(6-(2-cyanophenyl)-2-{[2-(3-fluorophenyl)ethyl]amino}(3-pyridyl))carboxamide]
5.26 | O=C(NC[C@H]1CCN1)c1ccc(-c2cn[nH]c2)nc1NCCc1cccc(F)c1 [N-[((2R)azetidin-2-yl)methyl](2-{[2-(3-fluorophenyl)ethyl]amino}-6-pyrazol-4-yl(3-pyridyl))carboxamide]
7.15 | N#Cc1ccccc1-c1ccc(C(=O)NC[C@H]2CCCN2S(=O)(=O)CCN)c(NCCc2cccc(F)c2)n1 [N-({(2R)-1-[(2-aminoethyl)sulfonyl]pyrrolidin-2-yl}methyl)(6-(2-cyanophenyl)-2-{[2-(3-fluorophenyl)ethyl]amino}(3-pyridyl))carboxamide]
4.30 | O=C(NCc1cccnc1)c1ccc(-c2cnoc2)nc1NCCc1cccc(F)c1 [(2-{[2-(3-fluorophenyl)ethyl]amino}-6-isoxazol-4-yl(3-pyridyl))-N-(3-pyridylmethyl)carboxamide]
7.21 | NCC(=O)N1CCC[C@@H]1CNC(=O)c1cc(F)c(-c2cn[nH]c2)nc1NCCc1cccc(F)c1 [N-{[(2R)-1-(2-aminoacetyl)pyrrolidin-2-yl]methyl}(5-fluoro-2-{[2-(3-fluorophenyl)ethyl]amino}-6-pyrazol-4-yl(3-pyridyl))carboxamide]
5.89 | CN1CCN(C(=O)CN)[C@@H](CNC(=O)c2ccc(-c3ccccc3C#N)nc2NCCc2cccc(F)c2)C1 [N-{[(2S)-1-(2-aminoacetyl)-4-methylpiperazin-2-yl]methyl}(6-(2-cyanophenyl)-2-{[2-(3-fluorophenyl)ethyl]amino}(3-pyridyl))carboxamide]
7.57 | Cn1cc(-c2nc(NCCc3cccc(F)c3)c(C(=O)NCc3cccc(CN)n3)cc2Br)cn1 [N-{[6-(aminomethyl)(2-pyridyl)]methyl}(5-bromo-2-{[2-(3-fluorophenyl)ethyl]amino}-6-(1-methylpyrazol-4-yl)(3-pyridyl))carboxamide]
4.23 | N#Cc1ccccc1-c1ccc(C(=O)N[C@H](CCCCNC(=O)OCc2ccccc2)C(N)=O)c(NCCc2cccc(F)c2)n1 [N-{(1R)-1-carbamoyl-5-[(phenylmethoxy)carbonylamino]pentyl}(6-(2-cyanophenyl)-2-{[2-(3-fluorophenyl)ethyl]amino}(3-pyridyl))carboxamide]
6.18 | COC(=O)CCC(=O)N1CCC[C@@H]1CNC(=O)c1ccc(-c2ccccc2C#N)nc1NCCc1cccc(F)c1 [methyl 4-((2R)-2-{[(6-(2-cyanophenyl)-2-{[2-(3-fluorophenyl)ethyl]amino}(3-pyridyl))carbonylamino]methyl}pyrrolidinyl)-4-oxobutanoate]
4.71 | OC(CNCc1ccccn1)c1ccc(-c2ccccc2)nc1NCCc1cccc(F)c1 (stereo not shown) [1-(2-{[2-(3-fluorophenyl)ethyl]amino}-6-phenyl(3-pyridyl))-2-[(2-pyridylmethyl)amino]ethan-1-ol]
4.96 | COC(=O)CNC[C@H](N)CNC(=O)c1ccc(-c2cnn(C)c2)nc1NCCc1cccc(F)c1 [methyl 2-({(2S)-2-amino-3-[(2-{[2-(3-fluorophenyl)ethyl]amino}-6-(1-methylpyrazol-4-yl)(3-pyridyl))carbonylamino]propyl}amino)acetate]
5.90 | CNC(=O)[C@@H](C)NC(=O)c1ccc(-c2ccccc2C#N)nc1NCCc1cccc(F)c1 [(2R)-2-[(6-(2-cyanophenyl)-2-{[2-(3-fluorophenyl)ethyl]amino}(3-pyridyl))carbonylamino]-N-methylpropanamide]
5.28 | O=C(Nc1ccncc1)c1ccc(-c2ccccc2)nc1NCCc1ccccn1 [{6-phenyl-2-[(2-(2-pyridyl)ethyl)amino](3-pyridyl)}-N-(4-pyridyl)carboxamide]
7.43 | CN1CC(=O)N[C@@H](CNC(=O)c2ccc(-c3ccccc3C#N)nc2NCCc2cccc(F)c2)C1 (stereo in doubt) [(6-(2-cyanophenyl)-2-{[2-(3-fluorophenyl)ethyl]amino}(3-pyridyl))-N-[(4-methyl-6-oxopiperazin-2-yl)methyl]carboxamide]
5.26 | NCCn1ccc(CNC(=O)c2ccc(-c3cc[nH]n3)nc2NCCc2cccc(F)c2)n1 [N-{[1-(2-aminoethyl)pyrazol-3-yl]methyl}(2-{[2-(3-fluorophenyl)ethyl]amino}-6-pyrazol-3-yl(3-pyridyl))carboxamide]
5.23 | C[C@H](CNC(=O)c1ccc(-c2ccccc2C#N)nc1NCCc1cccc(F)c1)N(C)C(=O)CNC(=O)OC(C)(C)C
8.22 | N#Cc1ccccc1-c1ccc(C(=O)NCc2cccnc2CCN)c(NCCc2cccc(F)c2)n1 [N-{[2-(2-aminoethyl)(3-pyridyl)]methyl}(6-(2-cyanophenyl)-2-{[2-(3-fluorophenyl)ethyl]amino}(3-pyridyl))carboxamide]
7.19 | O=C(NCc1cccnc1NCCO)c1ccc(-c2cn[nH]c2)nc1NCCc1cccc(F)c1 [(2-{[2-(3-fluorophenyl)ethyl]amino}-6-pyrazol-4-yl(3-pyridyl))-N-({2-[(2-hydroxyethyl)amino](3-pyridyl)}methyl)carboxamide]
5.90 | N#Cc1ccc(CNC(=O)c2ccc(-c3ccccc3)nc2NCCc2cccc(F)c2)cn1 [N-[(6-cyano(3-pyridyl))methyl](2-{[2-(3-fluorophenyl)ethyl]amino}-6-phenyl(3-pyridyl))carboxamide]
5.70 | COc1ccc(Cl)c(-c2ccc(C(=O)NCc3cccnc3)c(NCCc3cccc(F)c3)n2)c1 [(6-(2-chloro-5-methoxyphenyl)-2-{[2-(3-fluorophenyl)ethyl]amino}(3-pyridyl))-N-(3-pyridylmethyl)carboxamide]
6.04 | N#Cc1ccccc1-c1ccc(C(=O)NC[C@@H]2CCC(=O)N2CCN)c(NCCc2cccc(F)c2)n1 [N-{[(2S)-1-(2-aminoethyl)-5-oxopyrrolidin-2-yl]methyl}(6-(2-cyanophenyl)-2-{[2-(3-fluorophenyl)ethyl]amino}(3-pyridyl))carboxamide]
5.42 | NCCCn1ccc(CNC(=O)c2ccc(-c3cc[nH]n3)nc2NCCc2cccc(F)c2)n1 [N-{[1-(3-aminopropyl)pyrazol-3-yl]methyl}(2-{[2-(3-fluorophenyl)ethyl]amino}-6-pyrazol-3-yl(3-pyridyl))carboxamide]
4.70 | O=C(NCc1cccnc1)c1ccc(-c2ccccc2)nc1NCCOc1ccccc1 [{6-phenyl-2-[(2-phenyoxyethyl)amino](3-pyridyl)}-N-(3-pyridylmethyl)carboxamide]
6.87 | N#Cc1ccccc1-c1ccc(C(=O)NCC2CC2)c(NCCc2cccc(F)c2)n1 [(6-(2-cyanophenyl)-2-{[2-(3-fluorophenyl)ethyl]amino}(3-pyridyl))-N-(cyclopropylmethyl)carboxamide]
7.20 | O=C(NCc1cccnc1)c1ccc(-c2ccccc2)nc1NCCc1cccc(F)c1 [(2-{[2-(3-fluorophenyl)ethyl]amino}-6-phenyl(3-pyridyl))-N-(3-pyridylmethyl)carboxamide]

Compound | pIC50
CC(C)(C)OC(=O)NCc1ncccc1CNC(=O)c1cc(C#N)c(-c2cn[nH]c2)nc1NCCc1cccc(F)c1 [N-[(2-{[(tert-butoxy)carbonylamino]methyl}(3-pyridyl))methyl](5-cyano-2-{[2-(3-fluorophenyl)ethyl]amino}-6-pyrazol-4-yl(3-pyridyl))carboxamide] | 6.00
Cc1cc(C(=O)NC[C@H]2CCC(=O)N2CCCNC(=O)OC(C)(C)C)c(NCCc2cccc(F)c2)nc1-c1cnn(C)c1 [N-[((2R)-1-{3-[(tert-butoxy)carbonylamino]propyl}-5-oxopyrrolidin-2-yl)methyl](2-{[2-(3-fluorophenyl)ethyl]amino}-5-methyl-6-(1-methylpyrazol-4-yl)(3-pyridyl))carboxamide] | 5.84
C[C@H](CNC(=O)c1cc(F)c(-c2cn[nH]c2)nc1NCCc1cccc(F)c1)NC(=O)OC(C)(C)C [N-{(2R)-2-[(tert-butoxy)carbonylamino]propyl}(5-fluoro-2-{[2-(3-fluorophenyl)ethyl]amino}-6-pyrazol-4-yl(3-pyridyl))carboxamide] | 5.09
CC(C)(C)OC(=O)NCCC(=O)N1CCC[C@@H]1CNC(=O)c1cc(F)c(-c2cn[nH]c2)nc1NCCc1cccc(F)c1 [N-[((2R)-1-{3-[(tert-butoxy)carbonylamino]propanoyl}pyrrolidin-2-yl)methyl](5-fluoro-2-{[2-(3-fluorophenyl)ethyl]amino}-6-pyrazol-4-yl(3-pyridyl))carboxamide] | 6.01
